Experimental data published in patent publication US7138361B2, “Herbicidal heterocycles” (E. I. du Pont de Nemours and Company, priority 2000, dated 2006).

How the values were obtained:
Type in all cases: in vivo
Sunflower = experiment: Test C preemergence; conditions: Rate 250 g/ha, scale 0 to 100, 0 no effect, 100 complete control
Nightshade = experiment: Test C preemergence; conditions: Rate 500 g/ha, visual evaluation after 12 to 14 days
[1] = system: cocklebur (Xanthium strumarium); experiment: Test C preemergence; conditions: for Plant response rating (0 to 100), Cocklebur: Rate 500 g/ha, visual evaluation after 12 to 14 days
Method in brief: (§1)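 Herbicidal effect is a visual 0–100 score (100 = complete control) assigned versus untreated plants, 12 to 14 days after spraying in the greenhouse. Test compounds were applied in a non-phytotoxic, surfactant-containing solvent.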

[2] = system: woolly cupgrass (Eriochloa villosa); experiment: Test C preemergence; conditions: for Plant response rating (0 to 100), Cupgrass, Woolly: Rate 500 g/ha, visual evaluation after 12 to 14 days
Method in brief: as §1

[3] = system: giant foxtail (Setaria faberii); experiment: Test C preemergence; conditions: for Plant response rating (0 to 100), Foxtail, Giant: Rate 500 g/ha, visual evaluation after 12 to 14 days
Method in brief: as §1

[4] = system: pigweed (Amaranthus retroflexus); experiment: Test C preemergence; conditions: for Plant response rating (0 to 100), Pigweed: Rate 500 g/ha, visual evaluation after 12 to 14 days
Method in brief: as §1

kochia (Kochia scoparia) = experiment: Test C preemergence; conditions: for Plant response rating (0 to 100), Kochia: Rate 500 g/ha, visual evaluation after 12 to 14 days
Method in brief: as §1

soybean (Glycine max) = experiment: Test C preemergence; conditions: for Plant response rating (0 to 100), Soybean: Rate 500 g/ha, visual evaluation after 12 to 14 days
Method in brief: as §1

[5] = system: bermudagrass (Cynodon dactylon); experiment: Test C preemergence; conditions: for Plant response rating (0 to 100 where 0 is no effect and 100 is complete control), Bermudagrass: Rate 500 g/ha, visual evaluation after 12 to 14 days
Method in brief: as §1

[6] = system: crabgrass (Digitaria sanguinalis); experiment: Test C preemergence; conditions: for Plant response rating (0 to 100), Crabgrass: Rate 500 g/ha, visual evaluation after 12 to 14 days
Method in brief: as §1

[7] = system: Surinam grass (Brachiaria decumbens); experiment: Test C preemergence; conditions: for Plant response rating (0 to 100), Surinam grass: Rate 500 g/ha, visual evaluation after 12 to 14 days
Method in brief: as §1

[8] = system: velvetleaf (Abutilon theophrasti); experiment: Test B preemergence
Method in brief: (§2)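 Preemergence: seeds planted and treated with test chemicals in non-phytotoxic solvent with surfactant; postemergence on plants 2–18 cm (1- to 4-leaf stage). Kept in greenhouse 13–15 days, then visually rated against controls on a 0 (no effect) to 100 (complete control) scale.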

[9] = system: lambsquarters (Chenopodium album); experiment: Test B preemergence
Method in brief: as §2

[10] = system: cocklebur (Xanthium strumarium); experiment: Test B preemergence
Method in brief: as §2

corn (Zea mays) = experiment: Test B preemergence
Method in brief: as §2

[11] = system: morning glory (Ipomoea hederacea); experiment: Test B preemergence
Method in brief: as §2

[12] = system: giant foxtail (Setaria faberii); experiment: Test B preemergence
Method in brief: as §2

[13] = system: pigweed (Amaranthus retroflexus); experiment: Test B preemergence
Method in brief: as §2

[14] = system: barnyardgrass (Echinochloa crus-galli); experiment: Test B preemergence
Method in brief: as §2

rice (Oryza saliva) = experiment: Test B preemergence
Method in brief: as §2

[15] = system: crabgrass (Digitaria sanguinalis); experiment: Test B preemergence
Method in brief: as §2

[16] = system: Surinam grass (Brachiaria decumbens); experiment: Test B preemergence
Method in brief: as §2

[17] = Rate 125 g/ha, scale 0 to 100, 0 no effect, 100 complete control
[18] = preemergence, Rate 62 g/ha, scale 0 to 100
[19] = preemergence, Rate 250 g/ha, scale 0 to 100, 0 no effect, 100 complete control
[20] = Preemergence, Rate 500 g/ha, scale 0 to 100, 0 no effect, 100 complete control
[21] = preemergence, Rate 125 g/ha, scale of 0 to 100 where 0 is no effect and 100 is complete control, 13 to 15 days

CCCOc1cc(N2CCC(n3ccc(C(C)(C)C)n3)C2=O)ccc1C (stereo not drawn) [Compound 107]
Plant response rating, Sunflower (Sunflower): 40 | Plant response rating (0 to 100), Nightshade (Nightshade): 90 | Plant response rating, Cocklebur [1, 17]: 0 | Plant response rating, Cocklebur [1, 18]: 0 | Plant response rating (0 to 100), Cocklebur ([1]; preemergence): 0 | Plant response rating, Cocklebur [1, 19]: 0 | Plant response rating, Cupgrass, Woolly [2, 17]: 60 | Plant response rating, Cupgrass, Woolly [2, 18]: 50 | Plant response rating (0 to 100), Cupgrass, Woolly ([2]; preemergence): 80 | Plant response rating, Cupgrass, Woolly [2, 19]: 80 | Plant response rating, Foxtail, Giant [3, 17]: 100 | Plant response rating, Foxtail, Giant [3, 18]: 100 | Plant response rating (0 to 100), Foxtail, Giant ([3]; preemergence): 100 | Plant response rating, Foxtail, Giant [3, 19]: 100 | Plant response rating, Pigweed [4, 17]: 0 | Plant response rating, Pigweed [4, 18]: 90 | Plant response rating (0 to 100), Pigweed ([4]; preemergence): 100 | Plant response rating, Pigweed [4, 19]: 0 | Plant response rating, Kochia (kochia (Kochia scoparia); [17]): 70 | Plant response rating, Kochia (kochia (Kochia scoparia); [18]): 70 | Plant response rating (0 to 100), Kochia (kochia (Kochia scoparia); preemergence): 100 | Plant response rating, Kochia (kochia (Kochia scoparia); [19]): 85 | Plant response rating, Soybean (soybean (Glycine max); [17]): 30 | Plant response rating, Soybean (soybean (Glycine max); [18]): 30 | Plant response rating (0 to 100), Soybean (soybean (Glycine max); preemergence): 60 | Plant response rating, Soybean (soybean (Glycine max); [19]): 40 | Plant response rating, Bermudagrass [5, 17]: 100 | Plant response rating, Bermudagrass [5, 18]: 85 | Plant response rating (0 to 100 where 0 is no effect and 100 is complete control), Bermudagrass ([5]; preemergence): 100 | Plant response rating, Bermudagrass [5, 19]: 100 | Plant response rating, Crabgrass [6, 17]: 100 | Plant response rating, Crabgrass [6, 18]: 100 | Plant response rating (0 to 100), Crabgrass ([6]; preemergence): 100 | Plant response rating, Crabgrass [6, 19]: 100 | Plant response rating, Surinam grass [7, 17]: 0 | Plant response rating, Surinam grass [7, 18]: 0 | Plant response rating (0 to 100), Surinam grass ([7]; preemergence): 0 | Plant response rating, Surinam grass [7, 19]: 0 | Plant response rating, Velvetleaf [8, 20]: 0 | Plant response rating, Velvetleaf [8, 21]: 0 | Plant response rating, Lambsquarters [9, 20]: 100 | Plant response rating, Lambsquarters [9, 21]: 100 | Plant response rating, Cocklebur [10, 20]: 20 | Plant response rating, Cocklebur [10, 21]: 0 | Plant response rating, Corn (corn (Zea mays); [20]): 0 | Plant response rating, Corn (corn (Zea mays); [21]): 0 | Plant response rating, Morningglory [11, 20]: 100 | Plant response rating, Morningglory [11, 21]: 0 | Plant response rating, Foxtail, Giant [12, 20]: 40 | Plant response rating, Foxtail, Giant [12, 21]: 0 | Plant response rating, Pigweed [13, 20]: 100 | Plant response rating, Pigweed [13, 21]: 80 | Plant response rating, Barnyardgrass [14, 20]: 30 | Plant response rating, Barnyardgrass [14, 21]: 0 | Plant response rating, Rice (rice (Oryza saliva); [20]): 0 | Plant response rating, Rice (rice (Oryza saliva); [21]): 0 | Plant response rating, Crabgrass [15, 20]: 100 | Plant response rating, Crabgrass [15, 21]: 0 | Plant response rating, Surinam grass [16, 20]: 70 | Plant response rating, Surinam grass [16, 21]: 0

CC(C)c1cccc(N2CCC(n3ccc(C(C)(C)C)n3)C2=O)c1 (stereo not drawn) [Compound 111]
Plant response rating, Sunflower (Sunflower): 0 | Plant response rating (0 to 100), Nightshade (Nightshade): 0 | Plant response rating, Cocklebur [1, 17]: 0 | Plant response rating, Cocklebur [1, 18]: 0 | Plant response rating (0 to 100), Cocklebur ([1]; preemergence): 0 | Plant response rating, Cocklebur [1, 19]: 0 | Plant response rating, Cupgrass, Woolly [2, 17]: 20 | Plant response rating, Cupgrass, Woolly [2, 18]: 0 | Plant response rating (0 to 100), Cupgrass, Woolly ([2]; preemergence): 60 | Plant response rating, Cupgrass, Woolly [2, 19]: 60 | Plant response rating, Foxtail, Giant [3, 17]: 0 | Plant response rating, Foxtail, Giant [3, 18]: 0 | Plant response rating (0 to 100), Foxtail, Giant ([3]; preemergence): 80 | Plant response rating, Foxtail, Giant [3, 19]: 30 | Plant response rating, Pigweed [4, 17]: 20 | Plant response rating, Pigweed [4, 18]: 80 | Plant response rating (0 to 100), Pigweed ([4]; preemergence): 50 | Plant response rating, Pigweed [4, 19]: 20 | Plant response rating, Kochia (kochia (Kochia scoparia); [17]): 0 | Plant response rating, Kochia (kochia (Kochia scoparia); [18]): 0 | Plant response rating (0 to 100), Kochia (kochia (Kochia scoparia); preemergence): 0 | Plant response rating, Kochia (kochia (Kochia scoparia); [19]): 0 | Plant response rating, Soybean (soybean (Glycine max); [17]): 0 | Plant response rating, Soybean (soybean (Glycine max); [18]): 0 | Plant response rating (0 to 100), Soybean (soybean (Glycine max); preemergence): 0 | Plant response rating, Soybean (soybean (Glycine max); [19]): 0 | Plant response rating, Bermudagrass [5, 17]: 90 | Plant response rating, Bermudagrass [5, 18]: 60 | Plant response rating (0 to 100 where 0 is no effect and 100 is complete control), Bermudagrass ([5]; preemergence): 100 | Plant response rating, Bermudagrass [5, 19]: 100 | Plant response rating, Crabgrass [6, 17]: 100 | Plant response rating, Crabgrass [6, 18]: 80 | Plant response rating (0 to 100), Crabgrass ([6]; preemergence): 100 | Plant response rating, Crabgrass [6, 19]: 100 | Plant response rating, Surinam grass [7, 17]: 0 | Plant response rating, Surinam grass [7, 18]: 0 | Plant response rating (0 to 100), Surinam grass ([7]; preemergence): 10 | Plant response rating, Surinam grass [7, 19]: 0 | Plant response rating, Velvetleaf [8, 20]: 0 | Plant response rating, Velvetleaf [8, 21]: 0 | Plant response rating, Lambsquarters [9, 20]: 100 | Plant response rating, Lambsquarters [9, 21]: 30 | Plant response rating, Cocklebur [10, 20]: 0 | Plant response rating, Cocklebur [10, 21]: 0 | Plant response rating, Corn (corn (Zea mays); [20]): 30 | Plant response rating, Corn (corn (Zea mays); [21]): 0 | Plant response rating, Morningglory [11, 20]: 0 | Plant response rating, Morningglory [11, 21]: 0 | Plant response rating, Foxtail, Giant [12, 20]: 0 | Plant response rating, Foxtail, Giant [12, 21]: 0 | Plant response rating, Pigweed [13, 20]: 100 | Plant response rating, Pigweed [13, 21]: 0 | Plant response rating, Barnyardgrass [14, 20]: 100 | Plant response rating, Barnyardgrass [14, 21]: 0 | Plant response rating, Rice (rice (Oryza saliva); [20]): 0 | Plant response rating, Rice (rice (Oryza saliva); [21]): 0 | Plant response rating, Crabgrass [15, 20]: 100 | Plant response rating, Crabgrass [15, 21]: 70 | Plant response rating, Surinam grass [16, 20]: 0 | Plant response rating, Surinam grass [16, 21]: 0
